From patent US8178506B2, “Oligomeric compounds and compositions for use in modulation of small non-coding RNAs” (Regulus Therapeutics Inc., priority 2003, dated 2012) come the findings set out here.

Several values for one entry are separate records, joined by “and”; a condition that tells them apart may be missing. Equal entries are not always repeated. In the oligonucleotide strings, read from the 5' end, every base follows the letter of its sugar. An asterisk marks phosphorothioate; unmarked linkages are phosphodiester. Other units and linkages are bracketed, terminal groups are in braces. A string of capitals states the bases alone. e = 2'-O-(2-methoxyethyl) (MOE); [5mC] = 5-methylcytosine; d = 2'-deoxy (DNA)

This data set has as its system HeLa cells. Nature of the data set: Cell cycle assay in HeLa cells. The class given is cell-based, human. As to conditions: for % cells aneuploid / % cells in cell cycle phase G1 / % cells in cell cycle phase G2/M / % cells in cell cycle phase S / % cells in cell cycle phase subG1 / % cells in cell cycle phase: G1 / % cells in cell cycle phase: G2/M / % cells in cell cycle phase: S / % cells in cell cycle phase: aneuploid / % cells in cell cycle phase: subG1 / % cells in cell cycle phase aneuploid: HeLa cells; for % cells in cell cycle phase: G1 / % cells in cell cycle phase: G2/M / % cells in cell cycle phase: S / % cells in cell cycle phase: aneuploid / % cells in cell cycle phase: subG1: 48 hours after treatment, relative to untreated control (UTC=100); for phase of the cell cycle in which cells arrest or delay: HeLa. The protocol:
In some embodiments, HeLa cells were plated on collagen-coated 24-well plates at 50,000-60,000 cells per well, and allowed to attach to wells overnight. In some embodiments, HeLa cells were synchronized by double thymidine block (cells were washed three times with PBS, then grown in 10% FBS containing 2 mM thymidine; then 19 hours later, cells were washed three times in PBS, 10% FBS for 9 hours; cells were then incubated in 10% FBS, 2 mM thymidine for 15 hours; then washed three times with PBS, 10% FBS and samples were taken every two hours over a 16 hour period). A portion of each time sample was fixed with ethanol and treated with propidium iodide and subjected to FACs analysis for determination of the percentage of cells in each phase of the cell cycle. […] HeLa cells treated with 10 μM cisplatin or 100 ng/ml nocodazole were used as controls for G1-phase and late G2/M-phases, respectively. From the remaining portion of each of these time samples, total RNA was isolated and used to assess the expression of cell cycle marker mRNAs using the real-time RT-PCR methods and/or used to screen microarrays to assess the expression of miRNAs over the course of the cell cycle. It was observed that several miRNAs are expressed in a cell-cycle-dependent manner. Shown in Table 30 are the mRNA levels of the E2F1 transcription factor and topoisomerase 2A (Top2A), which vary over the course of the cell cycle and can be used for comparison to the experimental groups for the confirmation of cell cycle phase. Data are an average of three trials.
In some embodiments, HeLa cells were also treated with oligomeric compounds targeting miRNAs. […] The medium was removed from the plates. Each well was washed in 250 μl of PBS. […] Control cells received LIPOFECTIN™ only. […] After 24 hours (Table 31) or 48 hours (Table 32), cells were prepared for flow cytometry analysis to generate a cell cycle profile. The cell cycle profile was analyzed with the ModFit program (Verity Software House, Inc., Topsham Me.).
The random-mer ISIS 29848 (SEQ ID NO: 737) was used as a negative control, and ISIS 183891 (SEQ ID NO: 847), targeting kinesin-like 1/Eg5, was included as a positive control. Data are expressed as percentage of cells in each phase relative to the untreated control (UTC); values above 100 are considered to indicate a delay or arrest in that phase of the cell cycle. […] In some cases, the same oligomeric compound was tested in repeated experiments.
In accordance with the present invention, certain oligomeric compounds targeting miRNAs were selected for dose response studies. Using the cell cycle assay described above, the cell cycle profiles of HeLa or A549 cells treated with varying concentrations of oligomeric compounds of the present invention were assessed.
HeLa cells were treated with 25-, 50-, 100- or 150 nM of the oligomeric compounds ISIS
Numbers 327902 (SEQ ID NO: 320) and 328383 (SEQ ID NO: 492), both targeted against mir-192, and ISIS 327905 (SEQ ID NO: 323), targeting mir-205, and ISIS 328403 (SEQ ID NO: 512), targeting mir-106. Cells treated with increasing concentrations of oligomeric compounds were compared to untreated cells, to assess the dose-dependency of the observed delay or arrest. The random-mer ISIS 29848 was used as a negative control. Cells were prepared for flow cytometry 48-hours after oligonucleotide treatment, as described, supra.

Setting [1] is: 150 nM oligomeric compound, 24 hours, relative to untreated control (UTC = 100).
Where [2] appears, read: 150 nM, 48 hours, relative to untreated control.

Turning to “328337 (eG*e[5mC]*eT*eA*eG*dA*dT*dA*d[5mC]*dA*dA*dA*dG*dA*dT*eG*eG*eA*eA*eA) [compound 328337]”, under setting [1], the “% cells aneuploid” value is 104% and 64%; the “% cells in cell cycle phase G1” value is 106% and 108%; the “% cells in cell cycle phase G2/M” value is 113% and 109%; the “% cells in cell cycle phase S” value was 88%. Further, under setting [1], the “% cells in cell cycle phase subG1” value was 107% and 99%. Under “150 nM oligomeric compound”, the “% cells in cell cycle phase: G1” value is 92% and 73%; the “% cells in cell cycle phase: G2/M” value was 119% and 135%; the “% cells in cell cycle phase: S” value is 105% and 143%; the “% cells in cell cycle phase: aneuploid” value is 108% and 74%.
Turning to “ISIS 328403: 5-10-5 2′-MOE gapmer PS; SEQ ID NO 512; targets mir-106 pri-miRNA (eA*eG*eG*e[5mC]*e[5mC]*dT*dA*dT*dT*d[5mC]*d[5mC]*dT*dG*dT*dA*eG*e[5mC]*eA*eA*eA) [5-10-5 2′-MOE gapmer PS; targets mir-106 pri-miRNA]”, the “phase of the cell cycle in which cells arrest or delay” value (“phase of the cell cycle” for short) is, setting by setting: (150 nM, 24 hours) “G2/M-phase”; (150 nM, 48 hours) “S- and G2/M-phases”.
On to “ISIS 341787: SEQ ID NO: 852, targeted against mir-125a (mouse) (CACAGGTTAAAGGGTCTCAGGGA; all 2'-MOE, all phosphorothioate, methylation of C not given here)”, for which the “phase of the cell cycle” value (150 nM, 48 hours) was “arrest or delay in G2/M as well as an increased percentage of cells in the subG1 and aneuploid categories”.
On to “338750 (antisense TCCGCGGGGGCGGGGAGGCT; all 2'-MOE, all phosphorothioate, methylation of C not given here) [compound 338750]”, for which, under setting [1], the “% cells aneuploid” value came to 166%, the “% cells in cell cycle phase G1” value stood at 148%, the “% cells in cell cycle phase G2/M” value worked out at 97% and the “% cells in cell cycle phase S” value is 76%. Also, under setting [1], the “% cells in cell cycle phase subG1” value was 107%. For the same substance, for the setting “150 nM oligomeric compound”, the “% cells in cell cycle phase: G1” value was 99%, the “% cells in cell cycle phase: G2/M” value was found to be 103%, the “% cells in cell cycle phase: S” value is on record as 101% and the “% cells in cell cycle phase: aneuploid” value turned out to be 190%. In addition, under “150 nM oligomeric compound”, the “% cells in cell cycle phase: subG1” value came to 201%.
Take “338833 (antisense TCGTGCACCTGAGGAGTCTG; all 2'-MOE, all phosphorothioate, methylation of C not given here) [compound 338833]”: under setting [1], the “% cells aneuploid” value was determined as 185%, the “% cells in cell cycle phase G1” value is reported as 150%, the “% cells in cell cycle phase G2/M” value is listed as 142% and the “% cells in cell cycle phase S” value was 56%. For the same substance, the “% cells in cell cycle phase subG1” value under setting [1] is listed as 232%. Moreover, under “150 nM oligomeric compound”, the “% cells in cell cycle phase: G1” value was 44%, the “% cells in cell cycle phase: G2/M” value was found to be 258%, the “% cells in cell cycle phase: S” value is recorded as 106% and the “% cells in cell cycle phase: aneuploid” value worked out at 154%. The “% cells in cell cycle phase: subG1” value (150 nM oligomeric compound) is on record as 1091%. Under setting [2], the “% cells in cell cycle phase G1” value was determined as 87%, the “% cells in cell cycle phase G2/M” value came to 136%, the “% cells in cell cycle phase S” value is 100% and the “% cells in cell cycle phase aneuploid” value is listed as 136%. For the same substance, the “% cells in cell cycle phase subG1” value under setting [2] is recorded as 255%.
As to “338741 (antisense GCTTCACAATTAGACCATCC; all 2'-MOE, all phosphorothioate, methylation of C not given here) [compound 338741]”, under setting [1], the “% cells aneuploid” value is listed as 166%, the “% cells in cell cycle phase G1” value amounted to 141%, the “% cells in cell cycle phase G2/M” value is recorded as 112% and the “% cells in cell cycle phase S” value came to 73%. Under setting [1], the “% cells in cell cycle phase subG1” value worked out at 157%. Moreover, for the setting “150 nM oligomeric compound”, the “% cells in cell cycle phase: G1” value is 100%, the “% cells in cell cycle phase: G2/M” value is 99%, the “% cells in cell cycle phase: S” value worked out at 101% and the “% cells in cell cycle phase: aneuploid” value stood at 170%. Moreover, the “% cells in cell cycle phase: subG1” value (150 nM oligomeric compound) amounted to 185%.
On to “341785 (antisense GGAGTGAAGACACGGAGCCAGA; all 2'-MOE, all phosphorothioate, methylation of C not given here) [compound 341785]”, for which, under setting [1], the “% cells aneuploid” value was 158%, the “% cells in cell cycle phase G1” value was found to be 152%, the “% cells in cell cycle phase G2/M” value is recorded as 53% and the “% cells in cell cycle phase S” value is 92%. Also, the “% cells in cell cycle phase subG1” value under setting [1] was 125%. Also, where the note is “150 nM oligomeric compound”, the “% cells in cell cycle phase: G1” value is 82%, the “% cells in cell cycle phase: G2/M” value was 116%, the “% cells in cell cycle phase: S” value was determined as 126% and the “% cells in cell cycle phase: aneuploid” value came to 166%. In addition, the “% cells in cell cycle phase: subG1” value (150 nM oligomeric compound) was determined as 1148%.
With “GCCAAGGCGTGACATGATAT (chemistry not given here) [ISIS 25691, 5-10-5 2′-MOE gapmer PS targeted to Drosha RNase III mRNA]”, the “phase of the cell cycle” value (150 nM, 48 hours) is “increased percentage of cells in S-phase as well as a significant percentage of cells in the subG1 and aneuploid categories”.
In the case of “328674 (eT*eG*e[5mC]*e[5mC]*e[5mC]*dT*dG*d[5mC]*dT*d[5mC]*dA*dG*dA*dG*d[5mC]*e[5mC]*e[5mC]*eT*eA*eG; antisense) [compound 328674]”, under setting [1], the “% cells aneuploid” value turned out to be 69%, the “% cells in cell cycle phase G1” value worked out at 125%, the “% cells in cell cycle phase G2/M” value came out at 84% and the “% cells in cell cycle phase S” value was 93%. Also, the “% cells in cell cycle phase subG1” value under setting [1] is given as 564%. Moreover, under “150 nM oligomeric compound”, the “% cells in cell cycle phase: G1” value was 69%, the “% cells in cell cycle phase: G2/M” value was 109%, the “% cells in cell cycle phase: S” value is 160% and the “% cells in cell cycle phase: aneuploid” value amounted to 134%. Besides, the “% cells in cell cycle phase: subG1” value (150 nM oligomeric compound) is on record as 1663%.
For “328676 (eA*e[5mC]*e[5mC]*eT*e[5mC]*d[5mC]*d[5mC]*dA*dG*d[5mC]*d[5mC]*dA*dA*dT*d[5mC]*e[5mC]*eA*eT*eG*eT; antisense) [compound 328676]”, under setting [1], the “% cells aneuploid” value was 169%, the “% cells in cell cycle phase G1” value is reported as 99%, the “% cells in cell cycle phase G2/M” value stood at 134% and the “% cells in cell cycle phase S” value was found to be 86%. For the same substance, under setting [1], the “% cells in cell cycle phase subG1” value was 139%. Moreover, under “150 nM oligomeric compound”, the “% cells in cell cycle phase: G1” value is 86%, the “% cells in cell cycle phase: G2/M” value is reported as 118%, the “% cells in cell cycle phase: S” value is reported as 118% and the “% cells in cell cycle phase: aneuploid” value stood at 172%. In addition, the “% cells in cell cycle phase: subG1” value (150 nM oligomeric compound) stood at 366%.
For the substance “ISIS 328707: SEQ ID NO: 616, targeting miR-100-1 (eG*e[5mC]*eA*eA*e[5mC]*dA*dG*dG*d[5mC]*d[5mC]*dT*d[5mC]*dA*dA*dT*eA*eT*e[5mC]*eT*eT)”, the “phase of the cell cycle” value (150 nM, both 24 and 48 hours) is on record as “G2/M-phase”.
Regarding “338797 (antisense CTGGGGAGGGGGTTAGCGTC; all 2'-MOE, all phosphorothioate, methylation of C not given here) [compound 338797]”, under setting [1], the “% cells aneuploid” value is reported as 193%, the “% cells in cell cycle phase G1” value came out at 101%, the “% cells in cell cycle phase G2/M” value amounted to 148% and the “% cells in cell cycle phase S” value is reported as 79%. Besides, the “% cells in cell cycle phase subG1” value under setting [1] came out at 197%. Further, for the setting “150 nM oligomeric compound”, the “% cells in cell cycle phase: G1” value came to 66%, the “% cells in cell cycle phase: G2/M” value is given as 168%, the “% cells in cell cycle phase: S” value is 124% and the “% cells in cell cycle phase: aneuploid” value worked out at 175%. In addition, the “% cells in cell cycle phase: subG1” value (150 nM oligomeric compound) was 813%. Also, under setting [2], the “% cells in cell cycle phase G1” value is 104%, the “% cells in cell cycle phase G2/M” value turned out to be 115%, the “% cells in cell cycle phase S” value is 89% and the “% cells in cell cycle phase aneuploid” value is 125%. The “% cells in cell cycle phase subG1” value under setting [2] is reported as 144%.
